Assay results taken from US20250051851A1, “NOVEL BIOMARKER FOR DETECTION OF CANCER METASTASIS” (INDUSTRY-ACADEMIC COOPERATION FOUNDATION, YONSEI UNIVERSITY, priority 2021, published 2025).

Tested on: IKZF1 and IKZF3
Test: In vivo experiment using IKZF inhibitor: counting circulating tumor cells in melanoma mouse model
Conditions: melanoma mouse model (B16F10 cells injected into paw pad); injection of the drug; FIG. 12

`Nc1cccc2c1C(=O)N(C1CCC(=O)NC1=O)C2=O` (stereo not shown) [pomalidomide] was tested, and the “number of circulating tumor cells” value was “decreased”.
